Experiments:
[1] = system: site-specific phosphorylation changes in liver samples; experiment: Phospho-proteomics of liver from treated Zucker fatty rats; format: in vivo; conditions: BT2 vs vehicle ZFR
Protocol: Phosphoproteomics: Large-scale measurements of phosphorylation changes in response to BT2 and PPM1K were performed. Briefly, protein from livers of ZFR treated with BT2 or DMSO, or with Ad-CMV-PPM1K or Ad-CMV-GFP, were solubilized, digested with LysC and trypsin, labeled with TMT-6plex reagents, and mixed in batches of six to enable two direct comparisons: 1) BT2 vs. DMSO (n=3), 2) PPM1K vs. GFP (n=3). Phosphopeptides were enriched from the majority of each mixture using immobilized metal affinity chromatography (IMAC), and a small portion of the input material was retained for assessment of relative protein abundance. Both phosphopeptide and input fractions were subjected to nanoLC-MS/MS using a nano-Acquity UPLC system (Waters) coupled to a Q Exactive Plus Hybrid Quadrupole-Orbitrap mass spectrometer (Thermo Fischer Scientific). Raw LC-MS/MS data were processed in Proteome Discoverer v2.1 (PD2.1, Thermo Fisher Scientific) and subsequent statistical analysis was performed in Microsoft EXCEL. […] (PD2.2, Thermo Fisher Scientific). Phosphosite motif analysis and logo generation was performed in PhosphoSitePlus® by submitting pre-aligned 15 amino acid sequences for all modulated phosphopeptides from each study into the motif and logo analysis tools (Hornbeck et al., 2015).
Tissue lysis and protein digestion for proteomics: Approximately 50 mg of pulverized liver tissue power from each rat (3 BT2- and 3 DMSO-treated animals; 3 PPM1K- and 3 GFP-overexpressing animals) was re-suspended in 400 μL of ice-cold 8M Urea Lysis Buffer (8 M urea in 50 mM Tris, pH 8.0, 40 mM NaCl, 2 mM MgCl2, 1 mM Na3VO4, 10 mM Na4P2O7, 50 mM NaF, supplemented with protease inhibitor (1× cOmplete mini EDTA-free) and phosphatase inhibitor (1× PhosStop) tablets). […] Protein concentration was determined by BCA, and equal amounts of protein (500 μg, adjusted to 2.5 mg/mL with Urea Lysis Buffer) from each sample was reduced with 5 mM DTT at 37° C. for 30 min, cooled to RT, alkylated with 15 mM iodoacetamide for 30 min in the dark and unreacted iodoacetamide quenched by the addition of DTT up to 15 mM. […]

ATP citrate lyase (ACL) = experiment: Immunoblot of phospho-ser454 and total ACL in liver of treated Zucker fatty rats; format: in vivo; conditions: ZFR, BT2 vs vehicle
Protocol: Individually housed, male 12 week-old Zucker fatty rats (ZFR, Charles River Laboratories) maintained on a custom control low fat (LF) diet (A11072001, Research Diets) were used for the BDK inhibition and PPM1K overexpression studies. For the BDK inhibition study, ZFR were administered the small molecule BDK inhibitor 3,6-dichlorobenzo[b]thiophene-2-carboxylic acid (BT2, Sigma) daily at a dose of 20 mg/kg dissolved in 200 ul of sterile dimethylsulfoxide by i.p. injection for 7 days. The control group was administered an equal volume of vehicle each day. On day 6, following an overnight fast, ZFR were subjected to a 1 g/kg i.p. glucose tolerance test (GTT) precisely 1 hr after administration of BT2 (20 mg/kg i.p.) or vehicle. The glucose tolerance test was performed as described (White, et al., 2016). Following the GTT, rats were returned to their normal cages and provided free access to food and water. Indirect calorimetry was performed in a second cohort of BT2 treated rats on day 6 of BT2 administration. […]
Immunoblotting: Tissue lysates used for immunoblotting were prepared in Cell Lysis Buffer (Cell Signaling Technologies) containing protease inhibitor tablets (Roche), phosphatase inhibitor cocktails 2 and 3 (Sigma), and 10 mM PMSF. […] Immunoblots were developed using a Li-Cor Odyssey CLx and quantified using the Li-Cor software.

Q: What does the source list for O=C(O)c1sc2cc(Cl)ccc2c1Cl [BT2, 3,6-dichlorobenzo[b]thiophene-2-carboxylic acid]?
A: phosphorylation of serine 25, serine 29 and serine79 of acetyl-coA carboxylase 1 (ACC1), phospho-proteomics [1]: less phosphorylated; phosphosite serine 454 of ATP-citrate lyase (ACL), phospho-proteomics [1]: significantly downregulated; Log2 fold change in phosphorylation of serine 293 (serine 333) of BCKDH e1a, phospho-proteomics ([1]; p=0.054): −0.68; ACL phosphorylation on ser454, immunoblot of liver lysates (ATP citrate lyase (ACL)): markedly less; abundance of total ACL protein in liver (ATP citrate lyase (ACL)): trend for lower abundance
